Read-outs that look alike come from different tables or passages of the source. Each block holds one compound with its values, some of them ahead of it.
Assays:
[1] = system: blood glucose level; experiment: Hypoglycemic activity in obese diabetic mice (Table 1); assay type: in vivo, male viable yellow obese-diabetic mice; settings: Mus musculus, ip, intraperitoneal
Method: The hypoglycemic activity of the compounds of the present invention was determined by testing the efficacy of the compounds in vivo in male viable yellow obese-diabetic mice. The test procedure is described in detail below.
Test formulations were prepared by dissolving the test compound in a saline solution containing 2% Emulphor (a polyoxyethylated vegetable oil surfactant from GAP Corp.) to provide the dose level desired. Each test formulation was administered to six viable yellow obese-diabetic mice intraperitoneally at the beginning of the experiment. Blood glucose levels were determined immediately before the first dose and at 2 and 4 hours thereafter using glucose oxidase. A mean was taken of the 6 values obtained before the first dose and at the 2 and 4 hour intervals. In Table 1, Column 1 provides the example number of the test compound, Column 2 provides the dose level of compound tested, and Columns 3 and 4 provide a measurement of the test animal's blood glucose level 2 and 4 hours after test compound administration, respectively, as a percentage of the test animal' s pre-administration blood glucose level.

[2] = target: T1, Human liver cathepsin D (Homo sapiens, UniProt P07339); experiment: Cathepsin D inhibition, fluorometric assay (Tables 5 and 6); assay type: biochemical; settings: for inhibition at 10 µg/mL (stock): Compound Stock Concentration 10.0 μg/ml; for inhibition at 4.15 µg/mL (stock): Compound Stock Concentration 4.15 μg/ml
T1 construct: purchased Athens Research and Technology, Athens, Ga; host or cells: human liver
Method: Human liver cathepsin D (Athens Research and Technology, Athens, Ga.) was diluted in assay buffer, 200 mM NaOAc, pH 4.5, 150 mM NaCl to 500 ng/mL and then 100 μL of this cathepsin D solution was added to each well of a 96 well plate with the exception of control wells which received just 100 μL of assay buffer. […] Blank and enzyme control wells each received 5 μL of the DMSO vehicle.
After incubation at 37° C. for 30 minutes, cathepsin D activity was terminated by the addition of 100 μL per well of 400 mU/mL microsomal leucine aminopeptidase (EC 3.4.11.2, Sigma, St. Louis, Mo.) in 1M Tris-HCl, pH 8.0.
Following a two hour incubation at 37° C., to allow the aminopeptidase to release the fluorophore, 7-amido-4-methylcoumarin (AMC) from the products of cathepsin D cleavage, the plates were again analyzed in the fluorometer. In order to check for potential false positives, i.e., inhibitors of microsomal leucine aminopeptidase, residual aminopeptidase activity was monitored directly in each well by the addition of 20 μL/well of 2.5 mM Leu-pNA (Bachem Biosciences, Philadelphia, Pa.) in 10% DMSO.

[3] = system: blood glucose level; experiment: Hypoglycemic activity in normal fed rats (Table 2); assay type: in vivo, male Sprague Dawley rats; settings: Rattus norvegicus, oral
Method: The procedure used in this test system is described below.
The desired dose level of each test formulation was administered to four rats by oral […] at the beginning of the experiment. Blood glucose levels were determined immediately before the first dose and at 3 and 5 hours thereafter by an enzymatic procedure employing glucose oxidase and peroxidase coupled with a chromogenic oxygen acceptor. A mean was taken of the 4 values obtained before the first dose and at the 3 and 5 hour intervals.

[4] = 2 h, 2 hrs, read-out: Percent of Initial Blood Glucose Level After 2 hrs.
[5] = 4 h, 4 hrs, read-out: Percent of Initial Blood Glucose Level After 4 hrs.
[6] = 3 hrs, read-out: Percent of Initial Blood Glucose Level After 3 hrs.
[7] = 5 hrs, read-out: Percent of Initial Blood Glucose Level After 5 hrs.

T1 sequence (P07339 169-412 limits assumed): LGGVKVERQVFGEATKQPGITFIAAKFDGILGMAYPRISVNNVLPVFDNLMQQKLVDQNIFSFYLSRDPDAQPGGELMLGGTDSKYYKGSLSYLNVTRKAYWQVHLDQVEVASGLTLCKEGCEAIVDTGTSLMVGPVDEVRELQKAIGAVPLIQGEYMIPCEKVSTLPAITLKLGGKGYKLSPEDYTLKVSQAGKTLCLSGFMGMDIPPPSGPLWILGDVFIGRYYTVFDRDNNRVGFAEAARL
T1 sequence (P07339 65-161 limits assumed): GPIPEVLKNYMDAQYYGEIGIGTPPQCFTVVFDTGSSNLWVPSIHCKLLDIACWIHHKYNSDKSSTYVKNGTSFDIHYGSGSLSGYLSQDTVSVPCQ

SMILES: CCCOc1ccc(C=C2SC(=S)NC2=O)cc1OCC [Example 49, 5-[(3-ethoxy-4-propoxyphenyl)methylene]-2-thioxo-4-thiazolidinone]
- response vs control in vivo at 50 mg/kg [1, 4]: 83 ± 5%
- response vs control in vivo at 50 mg/kg [1, 5]: 77 ± 7%
- response vs control in vivo at 200 mg/kg [3, 6]: 100%
- response vs control in vivo at 200 mg/kg [3, 7]: 98%

SMILES: CCCCOc1ccc(C=C2SC(=S)NC2=O)cc1OC [Example 41, 5-[(3-methoxy-4-butoxyphenyl)methylene]-2-thioxo-4-thiazolidinone]
- response vs control in vivo at 5 mg/kg ([1]; 2 h, 5 mg/kg, 2 hrs, read-out: Percent of Initial Blood Glucose Level After 2 hrs.): 93 ± 10%
- response vs control in vivo at 10 mg/kg ([1]; 2 h, 10 mg/kg, 2 hrs, read-out: Percent of Initial Blood Glucose Level After 2 hrs.): 80 ± 7%
- response vs control in vivo at 50 mg/kg [1, 4]: 61 ± 3%
- response vs control in vivo at 160 mg/kg [3, 6]: 76%
- response vs control in vivo at 160 mg/kg [3, 7]: 67%

SMILES: CS(=O)(=O)Nc1cccc(C=C2SC(=S)NC2=O)c1 [Example 1, 5-[(3-methanesulfonamidophenyl)methylene]-2-thioxo-4-thiazolidinone]
- response vs control in vivo at 50 mg/kg [1, 4]: 82 ± 5%
- response vs control in vivo at 50 mg/kg [1, 5]: 75 ± 2%
- inhibition at 10 µg/mL (stock) [2]: 36%

SMILES: C=CCN1C(=O)C(=Cc2ccc(OCCCCCCC)c(OC)c2)SC1=S [Example 95, 5-[(3-methoxy-4-heptoxyphenyl)methylene]-2-thioxo-3-(2-propenyl)-4-thiazolidinone]
- inhibition at 8.3 µg/mL (stock) ([2]; Compound Stock Concentration 8.3 μg/ml): 36%

SMILES: CCCCCOc1ccc(C=C2SC(=S)N(C)C2=O)cc1OC [Example 65, 5-[(3-methoxy-4-pentoxyphenyl)methylene]-2-thioxo-3-methyl-4-thiazolidinone]
- response vs control in vivo at 200 mg/kg [3, 6]: 100%
- response vs control in vivo at 200 mg/kg [3, 7]: 91%

Further lines, with some results ahead:

- inhibition at 10 µg/mL (stock) [2]: 38%
SMILES: COc1ccc(C=C2SC(=S)NC2=O)cc1 [Example 18, 5-[(4-methoxyphenyl)methylene]-2-thioxo-4-thiazolidinone]
- response vs control in vivo at 50 mg/kg [1, 4]: 89 ± 4%
- response vs control in vivo at 50 mg/kg [1, 5]: 88 ± 5%

- inhibition at 4.15 µg/mL (stock) [2]: 90%
SMILES: O=C1NC(=S)SC1=Cc1cc(Cl)c(O)c(Cl)c1 [Example 55, 5-[(3,5-dichloro-4-hydroxyphenyl)methylene]-2-thioxo-4-thiazolidinone]
- response vs control in vivo at 50 mg/kg [1, 4]: 81 ± 3%
- response vs control in vivo at 50 mg/kg [1, 5]: 75 ± 3%
- ability to inhibit cathepsin D ([2]; compared to structurally similar compounds known in the art, in words): surprising ability to inhibit cathepsin D levels

- IC50 [2]: 3.1 µM
SMILES: CC(C)(C)c1cc(C=C2SC(=S)NC2=O)cc(C(C)(C)C)c1O [Example 28, 5-[[3,5-bis(1,1-dimethylethyl)-4-hydroxyphenyl]methylene]-2-thioxo-4-thiazolidinone]
- response vs control in vivo at 50 mg/kg [1, 4]: 83 ± 9%
- response vs control in vivo at 50 mg/kg [1, 5]: 79 ± 7%

- inhibition at 10 µg/mL (stock) [2]: 32%
SMILES: CC(=C1SC(=S)NC1=O)c1ccc2ccccc2c1 [Example 76, 5-[(2-naphthyl)methylmethylene]-2-thioxo-4-thiazolidinone]

- IC50 [2]: 8.9 µM
- inhibition at 4.15 µg/mL (stock) [2]: 57%
SMILES: O=C1NC(=S)SC1=Cc1ccc2ccccc2c1 [Example 35, 5-[(2-naphthalenyl)methylene)-2-thioxo-4-thiazolidinone]
- response vs control in vivo at 50 mg/kg [1, 4]: 83 ± 5%
- response vs control in vivo at 50 mg/kg [1, 5]: 85 ± 6%

- inhibition at 4.15 µg/mL (stock) [2]: 40%
SMILES: COc1ccc(C(=C2SC(=S)NC2=O)c2ccccc2)cc1 [Example 21, 5-[(4-methoxyphenyl)phenylmethylene]-2-thioxo-4-thiazolidinone]
- response vs control in vivo at 50 mg/kg [1, 4]: 99 ± 4%
- response vs control in vivo at 50 mg/kg [1, 5]: 81 ± 6%

— patent US5523314A, “Compounds useful as hypoglycemic agents and for treating Alzheimer's disease” (priority 1994, dated 1996)
